The source made the active and inactive calls. No cut-off for these calls is given here.
What was measured:
[1] = system: IPC81; assay: Induction of apoptosis in rat IPC81 cells overexpressing Bcl-2 assessed as chromatin condensation and fragmentation at 10 to 100 uM after 48 hrs by Hoechst 33342 staining-based visual and UV microscopic analysis; assay type: functional, cell-based
[2] = system: IPC81; assay: Induction of apoptosis in rat IPC81 cells assessed as chromatin condensation and fragmentation at 10 to 100 uM after 48 to 72 hrs by Hoechst 33342 staining-based visual and UV microscopic analysis; assay type: functional, cell-based
[3] = target: T1, Serine/threonine-protein kinase pim-3 (Homo sapiens, UniProt Q86V86); assay: Inhibition of human Pim-3 using RSRHSSYPAGT as substrate assessed as residual activity at 1 uM measured for 30 mins in presence of [gamma-33P]-ATP relative to control
[4] = target: T2, Serine/threonine-protein kinase pim-1 (Homo sapiens, UniProt P11309); assay: Inhibition of human Pim-1 using RSRHSSYPAGT as substrate assessed as residual activity at 10 uM measured for 30 mins in presence of [gamma-33P]-ATP relative to control
Target sequence in this assay (P11309 whole entry, looked up): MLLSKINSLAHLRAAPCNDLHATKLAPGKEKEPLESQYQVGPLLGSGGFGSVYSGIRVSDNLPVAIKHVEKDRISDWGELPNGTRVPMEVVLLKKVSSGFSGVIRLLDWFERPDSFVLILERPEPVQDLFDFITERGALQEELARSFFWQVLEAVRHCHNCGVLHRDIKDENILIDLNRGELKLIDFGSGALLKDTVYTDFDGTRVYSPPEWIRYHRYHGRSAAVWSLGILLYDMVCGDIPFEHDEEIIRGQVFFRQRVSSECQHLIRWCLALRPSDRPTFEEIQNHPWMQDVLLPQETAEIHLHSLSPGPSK

[5] = target: T2, Serine/threonine-protein kinase pim-1; assay: Inhibition of human Pim-1 using RSRHSSYPAGT as substrate assessed as residual activity at 1 uM measured for 30 mins in presence of [gamma-33P]-ATP relative to control
Target sequence in this assay (P11309 whole entry, looked up): as above

[6] = target: T2, Serine/threonine-protein kinase pim-1; assay: Inhibition of human Pim-1 using RSRHSSYPAGT as substrate measured for 30 mins in presence of [gamma-33P]-ATP
Target sequence in this assay (P11309 whole entry): as the sequence (P11309 whole entry, looked up) above

[7] = target: T1, Serine/threonine-protein kinase pim-3; assay: Inhibition of human Pim-3 using RSRHSSYPAGT as substrate assessed as residual activity at 10 uM measured for 30 mins in presence of [gamma-33P]-ATP relative to control
[8] = system: NRK; assay: Induction of apoptosis in NRK cells assessed as chromatin condensation and fragmentation at 10 to 100 uM after 48 hrs by Hoechst 33342 staining-based UV-vis microscopic analysis; assay type: cell-based; conditions: rat
[9] = target: T1, Serine/threonine-protein kinase pim-3; assay: Inhibition of human Pim-3 using RSRHSSYPAGT as substrate measured for 30 mins in presence of [gamma-33P]-ATP
[10] = target: T1, Serine/threonine-protein kinase pim-3; assay: Inhibition of Pim-3 (unknown origin)
[11] = target: T2, Serine/threonine-protein kinase pim-1; assay: Inhibition of Pim-1 (unknown origin)
Target sequence in this assay (P11309 whole entry): as the sequence (P11309 whole entry, looked up) above

[12] = system: IPC81; assay: Induction of apoptosis in rat IPC81 cells assessed as chromatin condensation and fragmentation at 100 uM after 72 hrs by Hoechst 33342 staining-based visual and UV microscopic analysis; assay type: functional, cell-based

| SMILES | Activity [1] | Activity [2] | Activity [3] [%] | Activity [4] [%] | Activity [5] [%] | IC50 [6] [nM] | Activity [7] [%] | Activity [8] | IC50 [9] [nM] | IC50 [10] [nM] | IC50 [11] [nM] | Activity [12] |
| --- | --- | --- | --- | --- | --- | --- | --- | --- | --- | --- | --- | --- |
| O=Cc1cn2c3c1ccc1c4ccccc4n(c13)CC(OCCCBr)C2 (centres undefined) | inactive | inactive | 40 | 19 | 54 | 740 | 11 | Non-toxic | 340 |  |  |  |
| O=Cc1cn2c3c1ccc1c4ccccc4n(c13)CCC2 |  |  |  |  |  |  |  |  |  | 50 | 42 |  |
| Cc1ccc(S(=O)(=O)OCCCOC2Cn3cc(C=O)c4ccc5c6ccccc6n(c5c43)C2)cc1 (centres undefined) |  |  | 70.8 | 94 | 81 |  | 79 |  |  |  |  |  |
| Cc1ccc(S(=O)(=O)OCCOC2Cn3cc(C=O)c4ccc5c6ccccc6n(c5c43)C2)cc1 (centres undefined) |  |  | 65 | 102 | 78 |  | 80 |  |  |  |  |  |
| O=Cc1cn2c3c1ccc1c4ccccc4n(c13)CC(OCCCN1CCCC1)C2 (centres undefined) |  |  | 54 | 24.1 | 58 |  | 18.3 |  |  |  |  |  |
| CN1CCN(CCOC2Cn3cc(C=O)c4ccc5c6ccccc6n(c5c43)C2)CC1 (centres undefined) |  |  | 60 | 35 | 94 |  | 28 |  |  |  |  |  |
| O=Cc1cn2c3c1ccc1c4ccccc4n(c13)CC(OCCN1CCOCC1)C2 (centres undefined) |  |  | 65.8 | 34 | 57 |  | 35 |  |  |  |  |  |
| O=Cc1cn2c3c1ccc1c4ccccc4n(c13)CC(OCCCO)C2 (centres undefined) |  |  | 49.6 | 21 | 54.9 |  | 16 |  |  |  |  |  |
| O=Cc1cn2c3c1ccc1c4ccccc4n(c13)CC(OCCN1CCCC1)C2 (centres undefined) |  |  | 48 | 17.8 | 84 |  | 16.4 |  |  |  |  |  |
| O=Cc1cn2c3c1ccc1c4ccccc4n(c13)CCCCC2 |  |  |  |  |  |  |  |  |  | 26 | 9 |  |
| O=Cc1cn2c3c1ccc1c4ccccc4n(c13)CC(OCCN1CCCCC1)C2 (centres undefined) |  |  | 54 | 30 | 82 |  | 22.2 |  |  |  |  |  |
| CN1CCN(CCCOC2Cn3cc(C=O)c4ccc5c6ccccc6n(c5c43)C2)CC1 (centres undefined) |  |  | 51 | 22.4 | 58.2 |  | 26 |  |  |  |  |  |
| O=Cc1cn2c3c1ccc1c4ccccc4n(c13)CC(OCCO)C2 (centres undefined) | inactive | Active | 30 | 9 | 44 | 1100 | 10.8 | Toxic | 700 |  |  | Active |
| O=Cc1cn2c3c1ccc1c4ccccc4n(c13)CC(O)C2 (centres undefined) |  |  | 13.3 | 5 | 38 | 1400 | 3.5 |  | 380 |  |  |  |
| Cc1ccc(S(=O)(=O)NC2Cn3cc(C=O)c4ccc5c6ccccc6n(c5c43)C2)cc1 (centres undefined) |  |  | 55 | 32 | 52 |  | 34 |  |  |  |  |  |
| CCN(CC)CCCOC1Cn2cc(C=O)c3ccc4c5ccccc5n(c4c32)C1 (centres undefined) |  |  | 60.8 | 29 | 71.6 |  | 24 |  |  |  |  |  |
| N#CCOC1Cn2cc(C=O)c3ccc4c5ccccc5n(c4c32)C1 (centres undefined) | inactive | inactive | 10.3 | 1.9 | 9.5 | 390 | 5 | Toxic | 190 |  |  |  |
| CCN(CC)CCOC1Cn2cc(C=O)c3ccc4c5ccccc5n(c4c32)C1 (centres undefined) |  |  | 59 | 35 | 78 |  | 28 |  |  |  |  |  |
| O=Cc1cn2c3c1ccc1c4ccccc4n(c13)CC(OCCCN1CCCCC1)C2 (centres undefined) | Active | Active | 45 | 31 | 66 |  | 20 | Non-toxic |  |  |  | Active |
| O=Cc1cn2c3c1ccc1c4ccccc4n(c13)CC(OCCCN1CCOCC1)C2 (centres undefined) |  |  | 70 | 28 | 75 |  | 24 |  |  |  |  |  |
| CS(=O)(=O)OC1Cn2cc(C=O)c3ccc4c5ccccc5n(c4c32)C1 (centres undefined) |  |  | 25 | 6.6 | 24 | 1560 | 8.1 |  | 600 |  |  |  |

— ChEMBL document CHEMBL3627645, “Synthesis and activities of new indolopyrrolobenzodiazepine derivatives toward acute myeloid leukemia cells” (Bioorg Med Chem, 2015)
